Data on seven molecules can be found in patent publication US20230265116A1, “DEGRADATION OF (EGFR) BY CONJUGATION OF EGFR INHIBITORS WITH E3 LIGASE LIGAND AND METHODS OF USE” (BEIGENE, LTD., priority 2020, published 2023).

Assay type in all cases: cell-based
One assay deals with T1, EGFR WT (BaF3 WT cells) (Homo sapiens, UniProt P00533).
T1 construct: expressed in transfected cells; host or cells: BaF3
The assay is described as follows: EGFR degradation HTRF assay, BaF3 WT cells. The following applies: BaF3 WT, 16h treatment; for Dmax: maximum percentage of degradation, read-out: WT Dmax (%). The protocol: BaF3 WT(wild type), BaF3-LTC(L858R/T790M/C797S) and BaF3-DTC(Del19/T790M/C797S) cells are treated with compounds diluted in 0.2% DMSO cell culture medium and incubate for 16h, 37° C., 5% CO2, H1975-#36, H1975-#28, H1975-#23 and HCC827 cells are treated with compounds diluted in 0.2% DMSO cell culture medium on day 2, incubate for 16h, 37° C., 5% CO2.the final concentriation of compounds in all assay is start with 10 uM, 5-fold dilution, total 8 doses were included.
After 16h treatment, add HTRF lysis buffer to each well; seal the plate and incubate 1 hour at room temperature on a plate shaker; Once the cells are lysed, 16 μL of cell lysate are transferred to a PE 384-well HTRF detection plate; 4 μL of pre-mixed HTRF antibodies are added to each well; Cover the plate with a plate sealer, spin 1000 rpm for 1 min, Incubate overnight at room temperature; Read on BMG PheraStar with HTRF protocol (337 nm-665 nm-620 nm).
The inhibition (degradation) percentage of the compound was calculated by the following equation: Inhibition percentage of Compound=100-100×(Signal-low control)/(High control-low control), wherein signal=each test compound group
High control=Cell group with added DMSO and without compound, indicating microplate readings without EGFR degradation;
Dmax is the maximum percentage of inhibition (degradation).
The IC50 (DC50) value of a compound can be obtained by fitting the following equation
Y=Bottom+(TOP−Bottom)/(1+((IC50/X)^hillslope))
Wherein, X and Y are known values, and IC50, Hillslope, Top and Bottom are the parameters obtained by fitting with software. Y is the inhibition percentage (calculated from the equation), X is the concentration of the compound; IC50 is the concentration of the compound when the 50% inhibition is reached. The smaller the IC50 value is, the stronger the inhibitory ability of the compound is. Vice versa, the higher the IC50 value is, the weaker the inhibitory ability of the compound is; Hillslope represents the slope of the fitted curve, generally around 1*; Bottom represents the minimum value of the curve obtained by data fitting, which is generally 0%±20%; Top represents the maximum value of the curve obtained by data fitting, which is generally 100%±20%. The experimental data were fitted by calculating and analyzing with Dotmatics data analysis software.

The target of assay [1] is T2, EGFR L858R/T790M (H1975-clone #36, homozygous) (Homo sapiens, UniProt P00533, L858R/T790M).
T2 construct: designed to specifically target WT EGFR but preserve the L858R/T790M copy; host or cells: H1975-clone #36
The assay can be described thus: EGFR degradation HTRF assay, H1975-clone #36 cells. The following applies: H1975 #36, 16h treatment; for Dmax: NCI-H1975, maximum percentage of degradation. The gist of the method:
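Eight-point, 5-fold series starting at 10 uM (0.2% DMSO) applied for 16 h, 37 °C, to a WT-EGFR-knockout H1975 clone carrying only L858R/T790M. Lysates read by HTRF overnight. Degradation percentage relative to DMSO control fitted for DC50, with Dmax as maximum degradation.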

Assay [2] concerns EGFR Del19/T790M/C797S (BaF3-DTC cells). The assay can be described thus: EGFR degradation HTRF assay, BaF3-DTC cells. Conditions: 16h treatment; for DTC Dmax (%): maximum percentage of degradation; for DC50: read-out: DTC DC50. The gist of the method:
(§1)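 EGFR remaining after a 16 h, 37 °C exposure (8 doses, 5-fold steps from 10 uM final, 0.2% DMSO) was quantified by HTRF antibodies in cell lysate. Percent inhibition relative to DMSO control was fitted by four-parameter logistic to give DC50; Dmax denotes maximal degradation.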

In assay [3] the target is T3, EGFR L858R/T790M/C797S (BaF3-LTC cells) (Homo sapiens, UniProt P00533, C797S/L858R/T790M).
T3 construct: expressed in transfected cells; host or cells: BaF3
The assay can be described thus: EGFR degradation HTRF assay, BaF3-LTC cells. Conditions: BaF3-LTC, 16h treatment; for Dmax: maximum percentage of degradation, read-out: LTC Dmax (%); for DC50: read-out: LTC DC50. The gist of the method:
as §1

Another assay deals with T4, EGFR (HCC827 cells) (Homo sapiens, UniProt P00533, DEL746-750).
T4 construct: endogenous in cells; host or cells: HCC827
The assay is described as follows: EGFR degradation HTRF assay, HCC827 cells. The following applies: HCC827, 16h treatment; for Dmax: maximum percentage of degradation. The gist of the method: as §1

T3 sequence (P00533 25-1210 T790M/C797S/L858R): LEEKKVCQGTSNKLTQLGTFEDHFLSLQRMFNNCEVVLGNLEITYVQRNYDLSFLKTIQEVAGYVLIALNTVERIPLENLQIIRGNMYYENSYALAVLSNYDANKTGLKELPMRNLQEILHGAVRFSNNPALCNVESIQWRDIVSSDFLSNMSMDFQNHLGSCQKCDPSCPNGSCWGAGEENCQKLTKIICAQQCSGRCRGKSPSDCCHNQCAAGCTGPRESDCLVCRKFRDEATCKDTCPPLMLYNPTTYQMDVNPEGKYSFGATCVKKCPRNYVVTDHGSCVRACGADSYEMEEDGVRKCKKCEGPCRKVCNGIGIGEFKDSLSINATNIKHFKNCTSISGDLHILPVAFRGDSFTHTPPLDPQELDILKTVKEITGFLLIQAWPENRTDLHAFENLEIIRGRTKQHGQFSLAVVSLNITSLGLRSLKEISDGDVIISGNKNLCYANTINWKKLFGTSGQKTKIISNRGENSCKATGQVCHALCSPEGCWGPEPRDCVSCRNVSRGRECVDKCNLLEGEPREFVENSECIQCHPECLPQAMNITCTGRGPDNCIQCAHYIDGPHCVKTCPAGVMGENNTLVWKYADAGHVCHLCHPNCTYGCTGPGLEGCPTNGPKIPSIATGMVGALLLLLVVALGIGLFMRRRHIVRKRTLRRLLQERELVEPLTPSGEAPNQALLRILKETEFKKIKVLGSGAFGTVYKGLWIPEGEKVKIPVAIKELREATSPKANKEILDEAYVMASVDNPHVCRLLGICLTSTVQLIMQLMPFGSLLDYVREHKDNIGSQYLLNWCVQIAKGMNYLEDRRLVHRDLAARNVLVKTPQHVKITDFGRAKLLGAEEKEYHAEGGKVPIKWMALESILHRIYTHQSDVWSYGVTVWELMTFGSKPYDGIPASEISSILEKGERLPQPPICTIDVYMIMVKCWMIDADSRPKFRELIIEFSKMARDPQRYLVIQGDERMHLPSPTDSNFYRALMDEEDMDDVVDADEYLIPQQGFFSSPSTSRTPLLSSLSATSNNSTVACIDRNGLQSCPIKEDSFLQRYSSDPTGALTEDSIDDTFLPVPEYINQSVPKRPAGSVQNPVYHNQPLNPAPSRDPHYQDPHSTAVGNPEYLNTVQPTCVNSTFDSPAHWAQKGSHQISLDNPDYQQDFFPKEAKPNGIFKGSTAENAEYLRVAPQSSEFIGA
T2 sequence (P00533 25-1210 T790M/L858R): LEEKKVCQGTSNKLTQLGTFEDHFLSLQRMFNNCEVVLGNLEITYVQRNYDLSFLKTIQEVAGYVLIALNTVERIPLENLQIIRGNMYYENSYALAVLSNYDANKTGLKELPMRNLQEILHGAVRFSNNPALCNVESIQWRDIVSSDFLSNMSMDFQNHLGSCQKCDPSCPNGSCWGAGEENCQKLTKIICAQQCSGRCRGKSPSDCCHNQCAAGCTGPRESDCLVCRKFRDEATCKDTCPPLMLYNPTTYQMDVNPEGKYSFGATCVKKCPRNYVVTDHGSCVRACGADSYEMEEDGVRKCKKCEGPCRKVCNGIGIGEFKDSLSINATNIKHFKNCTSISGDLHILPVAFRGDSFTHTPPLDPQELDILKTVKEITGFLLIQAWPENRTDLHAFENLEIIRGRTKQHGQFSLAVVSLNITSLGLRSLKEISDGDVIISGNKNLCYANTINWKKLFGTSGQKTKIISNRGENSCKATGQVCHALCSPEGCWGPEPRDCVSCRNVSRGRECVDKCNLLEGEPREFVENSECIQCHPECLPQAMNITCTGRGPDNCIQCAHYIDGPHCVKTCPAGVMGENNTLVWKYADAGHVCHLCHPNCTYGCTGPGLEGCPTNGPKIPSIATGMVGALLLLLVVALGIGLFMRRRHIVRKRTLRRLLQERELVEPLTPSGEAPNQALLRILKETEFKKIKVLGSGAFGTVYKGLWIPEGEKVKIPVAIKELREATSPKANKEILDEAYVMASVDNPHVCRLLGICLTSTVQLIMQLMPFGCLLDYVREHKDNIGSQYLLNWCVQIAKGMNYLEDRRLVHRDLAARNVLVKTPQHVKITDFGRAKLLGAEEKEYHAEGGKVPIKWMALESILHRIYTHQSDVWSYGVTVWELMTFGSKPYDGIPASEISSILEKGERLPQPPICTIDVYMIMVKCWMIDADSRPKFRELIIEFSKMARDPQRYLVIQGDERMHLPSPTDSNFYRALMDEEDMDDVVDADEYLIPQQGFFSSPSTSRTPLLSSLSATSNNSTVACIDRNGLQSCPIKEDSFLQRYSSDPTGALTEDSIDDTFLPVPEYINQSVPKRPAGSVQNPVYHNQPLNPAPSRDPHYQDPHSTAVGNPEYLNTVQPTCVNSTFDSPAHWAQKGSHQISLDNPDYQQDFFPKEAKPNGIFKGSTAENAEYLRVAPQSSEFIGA
T1 sequence (P00533 25-1210): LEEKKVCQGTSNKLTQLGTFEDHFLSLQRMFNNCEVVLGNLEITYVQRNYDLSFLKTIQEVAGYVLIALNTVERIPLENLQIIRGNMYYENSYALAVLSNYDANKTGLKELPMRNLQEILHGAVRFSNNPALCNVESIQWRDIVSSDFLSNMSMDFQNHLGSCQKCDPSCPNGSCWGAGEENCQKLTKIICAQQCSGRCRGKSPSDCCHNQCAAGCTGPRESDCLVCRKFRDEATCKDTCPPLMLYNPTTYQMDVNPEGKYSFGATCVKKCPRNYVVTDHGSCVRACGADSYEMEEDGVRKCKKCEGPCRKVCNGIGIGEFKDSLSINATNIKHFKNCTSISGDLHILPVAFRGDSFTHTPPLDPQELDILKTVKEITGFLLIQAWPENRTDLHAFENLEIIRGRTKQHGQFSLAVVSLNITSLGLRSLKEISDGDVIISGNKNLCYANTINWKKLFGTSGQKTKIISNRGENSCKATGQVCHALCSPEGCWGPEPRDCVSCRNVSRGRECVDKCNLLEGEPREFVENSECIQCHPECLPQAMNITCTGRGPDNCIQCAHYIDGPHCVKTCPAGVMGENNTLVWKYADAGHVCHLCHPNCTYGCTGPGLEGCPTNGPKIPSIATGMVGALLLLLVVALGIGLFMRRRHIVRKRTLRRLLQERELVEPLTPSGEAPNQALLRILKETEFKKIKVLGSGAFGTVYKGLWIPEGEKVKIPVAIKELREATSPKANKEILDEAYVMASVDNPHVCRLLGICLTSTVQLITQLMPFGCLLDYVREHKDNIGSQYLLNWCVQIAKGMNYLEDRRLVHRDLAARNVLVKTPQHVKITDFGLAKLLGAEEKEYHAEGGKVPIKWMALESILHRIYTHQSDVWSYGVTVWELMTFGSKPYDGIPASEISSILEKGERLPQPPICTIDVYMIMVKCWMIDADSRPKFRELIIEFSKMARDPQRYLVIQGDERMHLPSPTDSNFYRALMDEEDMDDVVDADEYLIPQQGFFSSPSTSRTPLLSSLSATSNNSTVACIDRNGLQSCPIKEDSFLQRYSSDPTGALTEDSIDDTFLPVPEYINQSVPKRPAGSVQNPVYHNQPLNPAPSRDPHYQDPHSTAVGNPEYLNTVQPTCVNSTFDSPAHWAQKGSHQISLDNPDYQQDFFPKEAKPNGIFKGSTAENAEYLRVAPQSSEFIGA
T4 sequence (P00533 with tags, fused parts or gaps DEL746-750): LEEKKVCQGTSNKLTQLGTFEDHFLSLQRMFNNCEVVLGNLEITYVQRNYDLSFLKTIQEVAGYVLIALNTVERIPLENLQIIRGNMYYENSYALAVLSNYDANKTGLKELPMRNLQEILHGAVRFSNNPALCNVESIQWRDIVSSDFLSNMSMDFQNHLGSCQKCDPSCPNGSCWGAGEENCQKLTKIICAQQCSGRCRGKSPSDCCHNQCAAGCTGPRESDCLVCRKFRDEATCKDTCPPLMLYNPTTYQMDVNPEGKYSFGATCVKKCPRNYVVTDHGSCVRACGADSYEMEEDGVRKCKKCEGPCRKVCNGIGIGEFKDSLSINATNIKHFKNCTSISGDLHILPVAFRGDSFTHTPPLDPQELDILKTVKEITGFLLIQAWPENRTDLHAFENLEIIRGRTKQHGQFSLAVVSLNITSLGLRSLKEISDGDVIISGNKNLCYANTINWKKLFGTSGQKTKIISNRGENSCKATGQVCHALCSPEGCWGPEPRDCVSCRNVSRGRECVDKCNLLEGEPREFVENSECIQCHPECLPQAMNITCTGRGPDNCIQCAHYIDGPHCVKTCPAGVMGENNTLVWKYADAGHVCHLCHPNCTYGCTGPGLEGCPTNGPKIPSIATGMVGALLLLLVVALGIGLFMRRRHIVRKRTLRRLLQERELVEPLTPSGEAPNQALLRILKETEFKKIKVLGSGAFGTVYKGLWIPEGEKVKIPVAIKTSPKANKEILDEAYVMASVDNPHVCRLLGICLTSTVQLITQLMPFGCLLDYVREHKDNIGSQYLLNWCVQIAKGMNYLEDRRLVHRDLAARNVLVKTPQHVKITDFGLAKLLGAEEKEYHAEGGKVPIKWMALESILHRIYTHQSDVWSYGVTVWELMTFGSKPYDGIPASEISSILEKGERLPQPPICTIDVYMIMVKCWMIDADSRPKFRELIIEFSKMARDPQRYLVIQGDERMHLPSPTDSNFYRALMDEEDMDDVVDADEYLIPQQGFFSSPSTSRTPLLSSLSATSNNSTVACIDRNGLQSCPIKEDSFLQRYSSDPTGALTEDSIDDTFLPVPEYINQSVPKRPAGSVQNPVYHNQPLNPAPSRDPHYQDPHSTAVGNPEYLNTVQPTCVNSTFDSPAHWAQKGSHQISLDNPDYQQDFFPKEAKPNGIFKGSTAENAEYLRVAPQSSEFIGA

With `COc1cc(N2CCC(N3CCN(C(=O)CCCCN4CCN(c5ccc6c(c5)C(=O)N(C5CCC(=O)NC5=O)C6=O)CC4)CC3)CC2)ccc1Nc1ncc(Cl)c(Nc2ccccc2N(C)S(C)(=O)=O)n1` (stereo not shown) [Example 128, N-(2-((5-chloro-2-((4-(4-(4-(5-(4-(2-(2,6-dioxopiperidin-3-yl)-1,3-dioxoisoindolin-5-yl)piperazin-1-yl)pentanoyl)piperazin-1-yl)piperidin-1-yl)-2-methoxyphenyl)amino)pyrimidin-4-yl)amino)phenyl)-N-methylmethanesulfonamide], the DC50 at EGFR WT (BaF3 WT cells) is over 10000 nM; in assay [1], 11.5 nM; in assay [2], 53.7 nM; in assay [3], 168 nM; on EGFR (HCC827 cells), 3.2 nM. The Dmax amounted to 15.3% on EGFR WT (BaF3 WT cells), 85% in assay [1], 86.2% in assay [3] and 84% on EGFR (HCC827 cells). The “DTC Dmax (%)” value in assay [2] worked out at 99.67%.
In the case of `CCc1cc(Nc2ncc(Br)c(Nc3ccc4nccnc4c3P(C)(C)=O)n2)c(OC)cc1N1CCC(N2CCN(CCCN3CCN(c4ccc5c(c4)C(=O)N(C4CCC(=O)NC4=O)C5=O)CC3)CC2)CC1` (stereo not shown) [Example 60, 5-(4-(3-(4-(1-(4-((5-bromo-4-((5-(dimethylphosphoryl)quinoxalin-6-yl)amino)pyrimidin-2-yl)amino)-2-ethyl-5-methoxyphenyl)piperidin-4-yl)piperazin-1-yl)propyl)piperazin-1-yl)-2-(2,6-dioxopiperidin-3-yl)isoindoline-1,3-dione], the DC50 at EGFR WT (BaF3 WT cells) worked out at 8860 nM; in assay [1] it was 16.5 nM; in assay [2] it was 42.2 nM; in assay [3], 89 nM; at EGFR (HCC827 cells), 4.8 nM. Also, the Dmax came out at 51.6% at EGFR WT (BaF3 WT cells), 73.4% in assay [1], 91.2% in assay [3] and 86.8% on EGFR (HCC827 cells). Besides, the “DTC Dmax (%)” value in assay [2] was 94.93%.
In the case of `CP(C)(=O)c1c(Nc2nc(Nc3ccc(N4CCN(C5CN(CC6CN(c7ccc8c(c7)C(=O)N(C7CCC(=O)NC7=O)C8=O)C6)C5)CC4)c(F)c3)ncc2Br)ccc2nccnc12` (stereo not shown) [Example 259, 5-(3-((3-(4-(4-((5-bromo-4-((5-(dimethylphosphoryl)quinoxalin-6-yl)amino)pyrimidin-2-yl)amino)-2-fluorophenyl)piperazin-1-yl)azetidin-1-yl)methyl)azetidin-1-yl)-2-(2,6-dioxopiperidin-3-yl)isoindoline-1,3-dione], the DC50 on EGFR WT (BaF3 WT cells) was over 10000 nM; in assay [1], 4.69 nM; in assay [2], 3.72 nM; in assay [3], 7.04 nM; on EGFR (HCC827 cells), 5.33 nM. The greatest degradation seen (Dmax) came to 11.7% at EGFR WT (BaF3 WT cells), 99.9% in assay [1], 92.1% in assay [3] and 81% at EGFR (HCC827 cells). Moreover, the “DTC Dmax (%)” value in assay [2] stood at 95.97%.
Regarding `CCc1cc(Nc2ncc(Br)c(Nc3ccc4nccnc4c3P(C)(C)=O)n2)c(OC)cc1N1CCC(N2CCN(CCCC3CN(c4ccc5c(c4)C(=O)N(C4CCC(=O)NC4=O)C5=O)C3)CC2)CC1` (stereo not shown) [Example 56, 5-(3-(3-(4-(1-(4-((5-bromo-4-((5-(dimethylphosphoryl)quinoxalin-6-yl)amino)pyrimidin-2-yl)amino)-2-ethyl-5-methoxyphenyl)piperidin-4-yl)piperazin-1-yl)propyl)azetidin-1-yl)-2-(2,6-dioxopiperidin-3-yl)isoindoline-1,3-dione], the DC50 at EGFR WT (BaF3 WT cells) is over 10000 nM; in assay [1], 6.5 nM; in assay [2] it was 9.52 nM; in assay [3], 31.4 nM; on EGFR (HCC827 cells), 2.63 nM. Also, the Dmax turned out to be 16.9% on EGFR WT (BaF3 WT cells), 88.8% in assay [1], 79.5% in assay [3] and 93.4% at EGFR (HCC827 cells). Moreover, in assay [2], the “DTC Dmax (%)” value is 82.17%.
Consider `CCc1cc(Nc2ncc(Br)c(Nc3ccc4nccnc4c3P(C)(C)=O)n2)c(OC)cc1N1CCC(N2CCN(CC3CCN(c4ccc5c(c4)C(=O)N(C4CCC(=O)NC4=O)C5=O)CC3)CC2)CC1` (stereo not shown) [Example 272, 5-(4-((4-(1-(4-((5-bromo-4-((5-(dimethylphosphoryl)quinoxalin-6-yl)amino)pyrimidin-2-yl)amino)-2-ethyl-5-methoxyphenyl)piperidin-4-yl)piperazin-1-yl)methyl)piperidin-1-yl)-2-(2,6-dioxopiperidin-3-yl)isoindoline-1,3-dione], for which the DC50 on EGFR WT (BaF3 WT cells) is over 10000 nM; in assay [1], 10.5 nM; in assay [2], 21.9 nM; in assay [3] it was 35.6 nM; on EGFR (HCC827 cells), 5.35 nM. Also, the Dmax on EGFR WT (BaF3 WT cells) was 12.1%; in assay [1] it was 75%; in assay [3] it was 90.9%; at EGFR (HCC827 cells), 86.2%. In assay [2], the “DTC Dmax (%)” value is 91.58%.
Consider `CCc1cc(Nc2ncc(Br)c(Nc3ccc4nccnc4c3P(C)(C)=O)n2)c(OC)cc1N1CCC(N2CCN(CCC3CCN(c4ccc(C5CCC(=O)NC5=O)c(C#N)c4)CC3)CC2)CC1` (stereo not shown) [Example 34, 5-(4-(2-(4-(1-(4-((5-bromo-4-((5-(dimethylphosphoryl)quinoxalin-6-yl)amino)pyrimidin-2-yl)amino)-2-ethyl-5-methoxyphenyl)piperidin-4-yl)piperazin-1-yl)ethyl)piperidin-1-yl)-2-(2,6-dioxopiperidin-3-yl)benzonitrile], for which the DC50 was over 10000 nM at EGFR WT (BaF3 WT cells); 8.6 nM in assay [1]; 15.1 nM in assay [2]; 21.6 nM in assay [3]; 6.2 nM on EGFR (HCC827 cells). For the same molecule, the Dmax amounted to 26.2% on EGFR WT (BaF3 WT cells), 71% in assay [1], 81.2% in assay [3] and 80.8% on EGFR (HCC827 cells). Besides, the “DTC Dmax (%)” value in assay [2] was determined as 82.04%.
In the case of `CCc1cc(Nc2ncc(Br)c(Nc3ccc4nccnc4c3P(C)(C)=O)n2)c(OC)cc1N1CCC(N2CCN(CCCCCc3ccc(C4CCC(=O)NC4=O)cc3)CC2)CC1` (stereo not shown) [Example 7, 3-(4-(5-(4-(1-(4-((5-bromo-4-((5-(dimethylphosphoryl)quinoxalin-6-yl)amino)pyrimidin-2-yl)amino)-2-ethyl-5-methoxyphenyl)piperidin-4-yl)piperazin-1-yl)pentyl)phenyl)piperidine-2,6-dione], the DC50 is over 10000 nM on EGFR WT (BaF3 WT cells); over 156 nM in assay [1]; 18.2 nM in assay [2]; 36.4 nM in assay [3]; 3.95 nM at EGFR (HCC827 cells). Besides, the Dmax at EGFR WT (BaF3 WT cells) worked out at 41.9%; in assay [1], 49%; in assay [3], 90.5%; on EGFR (HCC827 cells), 74.3%. In assay [2], the “DTC Dmax (%)” value worked out at 95.15%.
